Measurements as given in PubChem BioAssay (NCI).
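The compound was tested at five concentrations on cells cultured in 96-well plates, with a 48-hour exposure period. GI50 = concentration required for 50% inhibition of growth. TGI marks complete inhibition of growth.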

Legend:
Assay in all cases: inhibition of tumour cell growth, NCI panel, 48 h
EKVX NSCLC = test system: EKVX NSCLC
IGROV1 ovarian = test system: IGROV1 ovarian
K-562 leukemia = test system: K-562 leukemia
KM12 colon = test system: KM12 colon
NCI/ADR-RES ovarian = test system: NCI/ADR-RES ovarian
SK-MEL-5 melanoma = test system: SK-MEL-5 melanoma
SNB-75 CNS = test system: SNB-75 CNS
SR leukemia = test system: SR leukemia
U251 CNS = test system: U251 CNS
UACC-62 melanoma = test system: UACC-62 melanoma

| SMILES | GI50 (EKVX NSCLC) | TGI (EKVX NSCLC) | GI50 (IGROV1 ovarian) | TGI (IGROV1 ovarian) | GI50 (K-562 leukemia) | TGI (K-562 leukemia) | GI50 (KM12 colon) | TGI (KM12 colon) | GI50 (NCI/ADR-RES ovarian) | TGI (NCI/ADR-RES ovarian) | GI50 (SK-MEL-5 melanoma) | TGI (SK-MEL-5 melanoma) | GI50 (SNB-75 CNS) | TGI (SNB-75 CNS) | TGI (SR leukemia) | GI50 (U251 CNS) | TGI (U251 CNS) | GI50 (UACC-62 melanoma) | TGI (UACC-62 melanoma) | GI50 (SR leukemia) |
| --- | --- | --- | --- | --- | --- | --- | --- | --- | --- | --- | --- | --- | --- | --- | --- | --- | --- | --- | --- | --- |
| Nc1ccn(C=C=CCO)c(=O)n1 | > 1000 µM | > 1000 µM | > 1000 µM | > 1000 µM | > 1000 µM | > 1000 µM | > 1000 µM | > 1000 µM | > 1000 µM | > 1000 µM | > 1000 µM | > 1000 µM | > 1000 µM | > 1000 µM | > 1000 µM | > 1000 µM | > 1000 µM | > 1000 µM | > 1000 µM |  |
| O/N=C1\CCc2cc(-c3nc(C4CCNCC4)[nH]c3-c3ccncc3)ccc21 | > 25 µM | > 25 µM | > 25 µM | > 25 µM | > 25 µM | > 25 µM | > 25 µM | > 25 µM | > 25 µM | > 25 µM | > 25 µM | > 25 µM | > 15.8 µM | > 25 µM | > 25 µM | > 25 µM | > 25 µM | 0.24 µM | > 25 µM | > 25 µM |
| O=C(CCCc1c[nH]c2ccccc12)NC1CC(=O)c2c(Br)sc(Br)c21 (configuration not stated) | 18.9 µM | 37.3 µM | 9.05 µM | 40.5 µM | 2.01 µM | 5.56 µM | 23.5 µM | 71.2 µM | 23.3 µM | 70.3 µM | 14.5 µM | 30 µM | 13.9 µM | 27.7 µM | 6.79 µM | 7.29 µM | 19.9 µM | 14.2 µM | 27.9 µM | 2.62 µM |
| CNC(=O)OCc1nc(SC(C)C)n(C)c1COC(=O)NC |  | > 100 µM |  | > 100 µM |  | > 100 µM |  | > 100 µM |  | > 100 µM |  | > 100 µM |  | > 100 µM | > 100 µM |  | > 100 µM |  | > 100 µM |  |
| COc1cc2c3c(n(C)c(=O)c2cc1OC)-c1cc2c(cc1/C3=C\CCCCN)OCO2 | 18.4 µM | 57.2 µM | 3.12 µM | 8.53 µM | 6.22 µM | > 100 µM | 1.95 µM | 7.28 µM | 4.74 µM | 18.1 µM | 13.2 µM | 27.3 µM | 3.54 µM | 7.12 µM | > 100 µM | 6.04 µM | 21.6 µM | 12.5 µM | 37.8 µM | 3.58 µM |
| Nc1cccc2c1C(=O)N(C1CCC(=O)NC1=O)C2=O (configuration not stated) | > 100 µM | > 100 µM | > 100 µM | > 100 µM | > 100 µM | > 100 µM | > 100 µM | > 100 µM | > 100 µM | > 100 µM | > 100 µM | > 100 µM | > 100 µM | > 100 µM | > 100 µM | > 100 µM | > 100 µM | > 100 µM | > 100 µM | > 100 µM |
| CCCCCCCCCCCCc1ccc(C(=O)/C=C/C(=O)O)cc1 | 4.09 µM | 17.1 µM | 1.95 µM | 3.86 µM | 2.13 µM | 5.74 µM | 11.7 µM | 25.9 µM | 7.78 µM | 24.5 µM | 14.5 µM | 28.7 µM | 1.66 µM | 10.4 µM | 3.07 µM | 5.63 µM | 18.9 µM | 1.71 µM | 3.66 µM | 0.423 µM |
| CC(Cc1ccc(Cl)cc1Cl)NO (configuration not stated) |  | > 100 µM |  | > 100 µM |  | > 100 µM |  | > 100 µM |  | > 100 µM |  | > 100 µM |  | > 100 µM | > 100 µM |  | > 100 µM |  | > 100 µM |  |
| COc1ccc(N(C)c2nc(C)nc3ccccc23)cc1 | < 0.01 µM | 40.8 µM | < 0.01 µM | > 100 µM | < 0.01 µM | > 100 µM | < 0.01 µM |  | < 0.01 µM |  | < 0.01 µM | < 0.01 µM | < 0.01 µM | > 100 µM | > 36.5 µM | < 0.01 µM | > 100 µM | < 0.01 µM | > 49.6 µM | < 0.01 µM |
| O=C1c2ccccc2-c2c1c1ccccc1c(=O)n2CCO |  | > 100 µM |  | > 100 µM |  | > 100 µM |  | > 100 µM |  | > 100 µM |  | 33.1 µM |  | > 81 µM | 22.5 µM |  | > 100 µM |  | > 59.5 µM |  |
| NC(N)=NC(CC(=O)O)c1ccccc1 (configuration not stated) |  | > 100 µM |  | > 100 µM |  | > 100 µM |  | > 100 µM |  | > 100 µM |  | > 100 µM |  | > 100 µM | > 100 µM |  | > 100 µM |  | > 100 µM |  |
